Assay results from US20240374764A1, “COMBINATION RADIOTHERAPY” (Telix Pharmaceuticals (Innovations) Pty Ltd., priority 2021, published 2024).

Key:
DNA-PK = DNA-PK (Homo sapiens, UniProt P78527); settings: as demonstrated by crystallographic and enzyme kinetics studies; cited from earlier work
SK-RC-52 xenografts [1] = settings: mouse, in vivo
Procedure: Female BALB/c nude mice with established SK-RC-52 xenografts (approx. 100 mm^3) were used for this study. Mice were split into one of the following 3 groups: • Vehicle control (oral) n=4; • ^177Lu-anti-CAIX antibody only (DOTA-GmAb, as described herein; 162 μCi/6 MBq) n=4; • 50 mg/kg M3814 DNA-PKi orally dosed and ^177Lu-anti-CAIX antibody (162 μCi/6 MBq) n=4.
Animals were treated as follows: • Day −14: injection of 60 female mice with RK-RC-52 metastatic RCC cells in matrigel; • Day 0: ^177Lu-anti-CAIX antibody i.v. administration, single dose once only • Day 1-7: daily oral dosing of vehicle/M3814 @ 50 mg/kg.
SPECT/MRI imaging was conducted at days 3 and 6 to determine biodistribution.

SK-RC-52 xenografts [2] = test: In vivo efficacy in SK-RC-52 metastatic renal cell carcinoma xenograft model; set-up: species or system Female BALB/c nude mice; settings: number of mice (% of group, n=4) at conclusion of study; 177Lu antibody 6 MBq single i.v. dose day 0; M3814 50 mg/kg oral daily where combined
From the text: Tumour growth curves were monitored in mice for up to 6 months or ethical limits.

[3] = previous clinical studies, cited from earlier work

## COc1ccc([C@@H](O)c2cc(-c3ncnc4cc(N5CCOCC5)ccc34)c(F)cc2Cl)nn1 [M3814, (S)-[2-chloro-4-fluoro-5-(7-morpholin-4-yl-quinazolin-4-yl)-phenyl]-(6-methoxypyridazin-3-yl)-methanol]
DNA-PK
  inhibition of DNA-PK (mode, potency, selectivity): potent and selective ATP-competitive inhibitor of DNA-PK

## ^177Lu-anti-CAIX antibody: 177Lu-labelled DOTA conjugate of the anti-CAIX antibody GmAb (girentuximab)
SK-RC-52 xenografts [1]
  SPECT imaging: delivery of radiation to the tumour: specifically delivers cytotoxic radiation to the tumour over a prolonged period
SK-RC-52 xenografts [2]
  Complete Remission: 1 (25%)
  Progressive Disease: 3 (75%)

## ^177Lu-girentuximab: chimeric monoclonal antibody girentuximab (cG250, TLX250) specific for CAIX, radiolabelled with lutetium-177 via a DOTA linker
[3]; single agent
  MTD: 2405 MBq/m^2
[3]
  tolerability of follow on dosing at 75% of the previous dose: well tolerated
